Converted amounts (≈) assume the structure as drawn. “And” between values parts separate entries of the source, which are not always exact repeats. Equal values may be shown once. Read-outs that look alike come from different tables or passages of the source. Residues, ends and D or L forms follow the SMILES beside them.
Legend:
Swiss mice, kidney = test: Nephrotoxicity in mice (kidney histopathology); assay type: in vivo, mouse; conditions: for Kidney histopathology (SQS Score): n = 3
Outline: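 Female Swiss mice (7-week-old, 22–28 g) received lipopeptides in saline either s.c. at 12 mg/kg ×6 every 2 h (total 72 mg/kg, n = 3) or i.p. at 20 or 25 mg/kg ×6 every 2 h (total 120 mg/kg, n = 6; 150 mg/kg, n = 3). Right kidney collected 20 h after last dose, fixed in 10% buffered formalin (pH 7.4), histology scored blinded.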

[1] = system: P. aeruginosa FADDI-PA025; assay type: cell-based, Pseudomonas aeruginosa
Outline: (§1)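 Compounds were serially diluted in CaMHB, bacteria were added, and the lowest inhibitory concentration was recorded after broth microdilution testing.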

[2] = system: P. aeruginosa FADDI-PA038; assay type: cell-based, Pseudomonas aeruginosa
Outline: as §1

P. aeruginosa ATCC 27853 [3] = assay type: cell-based, Pseudomonas aeruginosa
Outline: (§2)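 MICs were determined by broth microdilution in cation-adjusted Mueller–Hinton broth (CaMHB), with clinical isolates tested alongside ATCC strains.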

A. baumannii ATCC 19606 = assay type: cell-based, Acinetobacter baumannii
Outline: as §2

A. baumannii FADDI-AB034 = assay type: cell-based, Acinetobacter baumannii
Outline: as §1

A. baumannii FADDI-AB030 = assay type: cell-based, Acinetobacter baumannii
Outline: as §1

P. aeruginosa ATCC 27853 [4] = test: Neutropenic mouse bloodstream infection model; assay type: in vivo; conditions: single IV dose 4 mg/kg; for Log10 CFU/mL blood at 4 h, Mean / Δlog10 CFU/mL blood (mean) / Log10 CFU/mL blood at 4 h, single mouse: 4 h; for Δlog10 CFU/mL blood (mean): treated minus control, mean of replicates; for Δlog10 CFU/mL blood (mean) / Log10 CFU/mL blood at 4 h, single mouse / Delta Log10 CFU/mL blood at 4 h, single mouse: 4 mg/kg; for Delta Log10 CFU/mL blood at 4 h, single mouse: treated mouse minus mean of vehicle mice
Outline: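 Female Swiss mice made neutropenic with cyclophosphamide (150 mg/kg day −4, 100 mg/kg day −1), infected IV with 50 µL of 4 × 10^8 CFU/mL. Lipopeptide 4 mg/kg (free base) IV at 2 h post-inoculation, n = 3. Efficacy = Δlog10 CFU/mL blood versus saline at 4 h post-dose.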

[5] = system: K. pneumoniae FADDI-KP065; assay type: cell-based, Klebsiella pneumoniae
Outline: as §1

[6] = system: K. pneumoniae FADDI-KP032; assay type: cell-based, Klebsiella pneumoniae
Outline: as §1

[7] = 72 mg/kg/d subcutaneously in six divided doses every 2 h

SMILES	Kidney histopathology (SQS Score) (Swiss mice, kidney; [7])	Kidney histopathology, mice with the SQS score (Swiss mice, kidney; mouse, in vivo)	MIC P. aeruginosa FADDI-PA025 ([1]; FADDI-PA025)	MIC P. aeruginosa FADDI-PA038 ([2]; FADDI-PA038)	MIC P. aeruginosa ATCC 27853 (P. aeruginosa ATCC 27853 [3]; ATCC 27853)	MIC A. baumannii ATCC 19606 (A. baumannii ATCC 19606; ATCC 19606)	MIC A. baumannii FADDI-AB034 (A. baumannii FADDI-AB034; FADDI-AB034)	MIC A. baumannii FADDI-AB030 (A. baumannii FADDI-AB030; FADDI-AB030)	Log10 CFU/mL blood at 4 h, Mean (P. aeruginosa ATCC 27853 [4])	Δlog10 CFU/mL blood (mean) (P. aeruginosa ATCC 27853 [4])	Log10 CFU/mL blood at 4 h, single mouse (P. aeruginosa ATCC 27853 [4])	Delta Log10 CFU/mL blood at 4 h, single mouse (P. aeruginosa ATCC 27853 [4])	MIC K. pneumoniae FADDI-KP065 ([5]; FADDI-KP065)	MIC K. pneumoniae FADDI-KP032 ([6]; FADDI-KP032)	further results
CCCCCCCCC(=O)N[C@@H](CCN)C(=O)N[C@H](C(=O)N[C@@H](CN)C(=O)N[C@H]1CCNC(=O)[C@H]([C@@H](C)O)NC(=O)[C@H](CCN)NC(=O)[C@H](CCN)NC(=O)[C@H](CC)NC(=O)[C@@H](CC(C)C)NC(=O)[C@H](CCN)NC1=O)[C@@H](C)O [Lipopeptide F314] (HELM PEPTIDE1{[CCCCCCCCC(=O)[*:2]].[Dab].T.[NC[C@H](N[*:1])C(=O)[*:2]].[Dab].[Dab].[dL].[Abu].[Dab].[Dab].T}$PEPTIDE1,PEPTIDE1,5:R3-11:R2$$$V2.0)	+1 (SQS + 1 = mild damage (overall score, 1 to <15))	3/3	>32 µg/mL	2 µg/mL (≈ 1.77 µM)	1 µg/mL (≈ 0.887 µM)	0.5 µg/mL (≈ 0.443 µM)	2 µg/mL (≈ 1.77 µM)	0.5 µg/mL (≈ 0.443 µM)	4.33 Log10 CFU/mL blood	−2.82 log10 CFU/mL blood	4.52 Log10 CFU/mL blood and 4.04 Log10 CFU/mL blood and 4.42 Log10 CFU/mL blood	-2.63 Log10 CFU/mL blood and -3.10 Log10 CFU/mL blood and -2.72 Log10 CFU/mL blood	0.25 µg/mL (≈ 0.222 µM)	<0.125 µg/mL	–
CC[C@@H]1NC(=O)[C@@H](CC(C)C)NC(=O)[C@H](CCN)NC(=O)[C@@H](NC(=O)[C@H](CN)NC(=O)[C@@H](NC(=O)[C@H](CCN)NC(=O)c2c(Cl)cccc2Cl)[C@@H](C)O)CCNC(=O)[C@H]([C@@H](C)O)NC(=O)[C@H](CCN)NC(=O)[C@H](CCN)NC1=O [Lipopeptide F360] (HELM PEPTIDE1{[O=C(c1c(Cl)cccc1Cl)[*:2]].[Dab].T.[NC[C@H](N[*:1])C(=O)[*:2]].[Dab].[Dab].[dL].[Abu].[Dab].[Dab].T}$PEPTIDE1,PEPTIDE1,5:R3-11:R2$$$V2.0)	0 (SQS 0 = no significant change (overall score, <1))	3/3	4 µg/mL (≈ 3.45 µM)	4 µg/mL (≈ 3.45 µM)	0.5 µg/mL (≈ 0.431 µM)	16 µg/mL (≈ 13.8 µM)	8 µg/mL (≈ 6.9 µM)	4 µg/mL (≈ 3.45 µM)	7.04 Log10 CFU/mL blood	−0.07 log10 CFU/mL blood	7.26 Log10 CFU/mL blood and 6.45 Log10 CFU/mL blood and 7.41 Log10 CFU/mL blood	0.15 Log10 CFU/mL blood and -0.66 Log10 CFU/mL blood and 0.30 Log10 CFU/mL blood	0.5 µg/mL (≈ 0.431 µM)	1 µg/mL (≈ 0.862 µM)	–
CC[C@@H]1NC(=O)[C@@H](CC(C)C)NC(=O)[C@H](CCN)NC(=O)[C@@H](NC(=O)[C@H](CN)NC(=O)[C@@H](NC(=O)[C@H](CCN)NC(=O)c2cccc(Cl)c2)[C@@H](C)O)CCNC(=O)[C@H]([C@@H](C)O)NC(=O)[C@H](CCN)NC(=O)[C@H](CCN)NC1=O [Lipopeptide F371] (HELM PEPTIDE1{[O=C(c1cccc(Cl)c1)[*:2]].[Dab].T.[NC[C@H](N[*:1])C(=O)[*:2]].[Dab].[Dab].[dL].[Abu].[Dab].[Dab].T}$PEPTIDE1,PEPTIDE1,5:R3-11:R2$$$V2.0)	0 (SQS 0 = no significant change (overall score, <1))	–	–	–	–	–	–	–	4.61 Log10 CFU/mL blood	−3.33 log10 CFU/mL blood	4.74 Log10 CFU/mL blood and 4.86 Log10 CFU/mL blood and 4.22 Log10 CFU/mL blood	-3.20 Log10 CFU/mL blood and -3.08 Log10 CFU/mL blood and -3.71 Log10 CFU/mL blood	–	–	Kidney histopathology, mice with the SQS score (Swiss mice, kidney; [7]): 3/3; MIC P. aeruginosa FADDI-PA025 ([1]; MDR clinical isolate): 1 µg/mL (≈ 0.888 µM); MIC P. aeruginosa FADDI-PA038 ([2]; carbapenem-resistant isolate): 2 µg/mL (≈ 1.78 µM); MIC P. aeruginosa ATCC 27853 (P. aeruginosa ATCC 27853 [3]): 0.5 µg/mL (≈ 0.444 µM); MIC A. baumannii ATCC 19606 (A. baumannii ATCC 19606): 4 µg/mL (≈ 3.55 µM); MIC A. baumannii FADDI-AB034 (A. baumannii FADDI-AB034; carbapenem-resistant isolate): 1 µg/mL (≈ 0.888 µM); MIC A. baumannii FADDI-AB030 (A. baumannii FADDI-AB030; carbapenem-resistant isolate): 1 µg/mL (≈ 0.888 µM); MIC K. pneumoniae FADDI-KP065 ([5]; carbapenem-resistant isolate): 1 µg/mL (≈ 0.888 µM); MIC K. pneumoniae FADDI-KP032 ([6]; carbapenem-resistant isolate): 0.5 µg/mL (≈ 0.444 µM)
CC[C@@H]1NC(=O)[C@@H](CC(C)C)NC(=O)[C@H](CCN)NC(=O)[C@@H](NC(=O)[C@H](CN)NC(=O)[C@@H](NC(=O)[C@H](CCN)NC(=O)c2ccc(Cl)cc2)[C@@H](C)O)CCNC(=O)[C@H]([C@@H](C)O)NC(=O)[C@H](CCN)NC(=O)[C@H](CCN)NC1=O [Lipopeptide F378] (HELM PEPTIDE1{[O=C(c1ccc(Cl)cc1)[*:2]].[Dab].T.[NC[C@H](N[*:1])C(=O)[*:2]].[Dab].[Dab].[dL].[Abu].[Dab].[Dab].T}$PEPTIDE1,PEPTIDE1,5:R3-11:R2$$$V2.0)	0 (SQS 0 = no significant change (overall score, <1))	3/3	2 µg/mL (≈ 1.78 µM)	1 µg/mL (≈ 0.888 µM)	0.5 µg/mL (≈ 0.444 µM)	1 µg/mL (≈ 0.888 µM)	0.25 µg/mL (≈ 0.222 µM)	1 µg/mL (≈ 0.888 µM)	4.71 Log10 CFU/mL blood	−3.23 log10 CFU/mL blood	4.78 Log10 CFU/mL blood and 4.64 Log10 CFU/mL blood	-3.16 Log10 CFU/mL blood and -3.30 Log10 CFU/mL blood	1 µg/mL (≈ 0.888 µM)	0.25 µg/mL (≈ 0.222 µM)	–
CC[C@@H]1NC(=O)[C@@H](CC(C)C)NC(=O)[C@H](CCN)NC(=O)[C@@H](NC(=O)[C@H](CN)NC(=O)[C@@H](NC(=O)[C@H](CCN)NC(=O)c2ccc(C)cc2)[C@@H](C)O)CCNC(=O)[C@H]([C@@H](C)O)NC(=O)[C@H](CCN)NC(=O)[C@H](CCN)NC1=O [Lipopeptide F383] (HELM PEPTIDE1{[Cc1ccc(C(=O)[*:2])cc1].[Dab].T.[NC[C@H](N[*:1])C(=O)[*:2]].[Dab].[Dab].[dL].[Abu].[Dab].[Dab].T}$PEPTIDE1,PEPTIDE1,5:R3-11:R2$$$V2.0)	0 (SQS 0 = no significant change (overall score, <1))	3/3	2 µg/mL (≈ 1.81 µM)	1 µg/mL (≈ 0.905 µM)	0.5 µg/mL (≈ 0.452 µM)	2 µg/mL (≈ 1.81 µM)	2 µg/mL (≈ 1.81 µM)	2 µg/mL (≈ 1.81 µM)	4.91 Log10 CFU/mL blood	−3.02 log10 CFU/mL blood	5.76 Log10 CFU/mL blood and 4.40 Log10 CFU/mL blood and 4.59 Log10 CFU/mL blood	-2.18 Log10 CFU/mL blood and -3.54 Log10 CFU/mL blood and -3.35 Log10 CFU/mL blood	1 µg/mL (≈ 0.905 µM)	1 µg/mL (≈ 0.905 µM)	–
CC[C@@H]1NC(=O)[C@@H](CC(C)C)NC(=O)[C@H](CCN)NC(=O)[C@@H](NC(=O)[C@H](CN)NC(=O)[C@@H](NC(=O)[C@H](CCN)NC(=O)c2ccc(Cl)cc2F)[C@@H](C)O)CCNC(=O)[C@H]([C@@H](C)O)NC(=O)[C@H](CCN)NC(=O)[C@H](CCN)NC1=O [Lipopeptide F448] (HELM PEPTIDE1{[O=C(c1ccc(Cl)cc1F)[*:2]].[Dab].T.[NC[C@H](N[*:1])C(=O)[*:2]].[Dab].[Dab].[dL].[Abu].[Dab].[Dab].T}$PEPTIDE1,PEPTIDE1,5:R3-11:R2$$$V2.0)	0 (SQS 0 = no significant change (overall score, <1))	3/3	1 µg/mL (≈ 0.874 µM)	0.5 µg/mL (≈ 0.437 µM)	0.5 µg/mL (≈ 0.437 µM)	2 µg/mL (≈ 1.75 µM)	0.5 µg/mL (≈ 0.437 µM)	1 µg/mL (≈ 0.874 µM)	4.51 Log10 CFU/mL blood	−3.06 log10 CFU/mL blood	4.51 Log10 CFU/mL blood and 4.31 Log10 CFU/mL blood and 4.72 Log10 CFU/mL blood	-3.07 Log10 CFU/mL blood and -3.27 Log10 CFU/mL blood and -2.85 Log10 CFU/mL blood	0.25 µg/mL (≈ 0.219 µM)	<0.125 µg/mL	–
